The values that follow come from patent US11104690B2, “Indazole derivatives useful as inhibitors of diacylglyceride O-acyltransferase 2” (Merck Sharp & Dohme Corp., priority 2016, dated 2021).

In the assay the target is Human DGAT2 (Homo sapiens (Human), UniProt Q96PD7). The assay can be described thus: DGAT2 Enzymatic Activity Assay (triolein formation, LC/MS/MS). The assay is classed as biochemical. Particulars: hDGAT2 Sf-9 membrane prep; 25 μM diolein, 10 μM oleoyl-CoA; room temperature. Put shortly: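 Triolein product, measured by LC/MS/MS as a ratio to internal standard, gave % inhibition and 4-parameter IC50. Reaction: 25 μM diolein, 10 μM oleoyl-CoA, 10 ng/μL hDGAT2 Sf-9 membrane, 100 mM Tris.Cl pH 7.0, 20 mM MgCl2, 5% ethanol, room temperature.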
Chain of Human DGAT2 (Q96PD7 whole entry): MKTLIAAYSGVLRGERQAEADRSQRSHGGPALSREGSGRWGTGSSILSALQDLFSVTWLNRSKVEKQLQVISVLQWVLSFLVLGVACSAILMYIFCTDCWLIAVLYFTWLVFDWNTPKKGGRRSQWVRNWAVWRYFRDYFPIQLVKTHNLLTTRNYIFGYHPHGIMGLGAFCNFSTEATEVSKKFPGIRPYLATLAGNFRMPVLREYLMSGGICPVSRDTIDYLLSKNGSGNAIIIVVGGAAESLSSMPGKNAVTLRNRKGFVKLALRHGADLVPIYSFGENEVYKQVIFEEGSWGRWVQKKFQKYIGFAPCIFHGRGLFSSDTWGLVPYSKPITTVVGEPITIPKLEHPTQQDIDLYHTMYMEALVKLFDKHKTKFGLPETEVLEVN
`O=C(NCc1ccncc1)c1ccc2c(-c3ccccc3Cl)nn(-c3ccc(F)cc3)c2c1` [Example 33, 3-(2-chlorophenyl)-1-(4-fluorophenyl)-N-(pyridin-4-ylmethyl)-1H-indazole-6-carboxamide] had an IC50 of 654 nM.

Compound `CC1(NC(=O)c2ccc3c(-c4ccccc4Cl)nn(-c4ccc(Cl)cn4)c3c2)CCS(=O)(=O)C1` (single isomer, unassigned) [Example 171-A, 3-(2-Chlorophenyl)-1-(5-chloropyridin-2-yl)-N-(3-methyl-1,1-dioxidotetrahydrothiophen-3-yl)-1H-indazole-6-carboxamide] had an IC50 of 15 nM.

Consider `COc1cccc(-n2nc(-c3ccccc3Cl)c3ccc(C(=O)NC4(C)CCS(=O)(=O)C4)cc32)n1` (racemic) [Example 186, 3-(2-chlorophenyl)-1-(6-methoxypyridin-2-yl)-N-(3-methyl-1,1-dioxidotetrahydrothiophen-3-yl)-1H-indazole-6-carboxamide], for which the IC50 amounted to 322 nM. This IC50 is about 21-fold higher than that of the compound before.

`O=C(NC1(CO)CCS(=O)(=O)C1)c1ccc2c(-c3ccccc3Cl)nn(-c3ccc(F)cc3)c2c1` (racemic) [Example 92, 3-(2-chlorophenyl)-1-(4-fluorophenyl)-N-[3-(hydroxymethyl)-1,1-dioxidotetrahydrothiophen-3-yl]-1H-indazole-6-carboxamide] showed an IC50 of 372 nM.

On to `N#Cc1cccc(-c2nn(-c3ccc(F)cc3)c3cc(C(=O)NC4CCS(=O)(=O)C4)ccc23)c1` (single isomer, unassigned) [Example 129-A], for which half-maximal inhibition (IC50) was put at 10 nM.

In turn, `O=C(NC1(CO)CCCC1)c1ccc2c(-c3ccccc3Cl)nn(-c3ccc(F)cc3)c2c1` [Example 43, 3-(2-chlorophenyl)-1-(4-fluorophenyl)-N-[1-(hydroxymethyl)cyclopentyl]-1H-indazole-6-carboxamide] returned an IC50 of 11 nM.

On to `O=C(NC1(CO)CCC1)c1ccc2c(-c3ccccc3Cl)nn(-c3ccc(F)cc3)c2c1` [Example 88, 3-(2-chlorophenyl)-1-(4-fluorophenyl)-N-[1-(hydroxymethyl)cyclobutyl]-1H-indazole-6-carboxamide], for which the IC50 was 15 nM.

For `O=C(N[C@@H]1CCC[C@H]1O)c1ccc2c(-c3ccccc3Cl)nn(-c3ccc(F)cc3)c2c1` [Example 94, 3-(2-chlorophenyl)-1-(4-fluorophenyl)-N-[(1R,2R)-2-hydroxycyclopentyl]-1H-indazole-6-carboxamide], the IC50 was 772 nM.

In the case of `O=C1CC(NC(=O)c2ccc3c(-c4ccccc4Cl)nn(-c4ccc(F)cc4)c3c2)C(=O)N1` (racemic) [Example 57, 3-(2-chlorophenyl)-N-(2,5-dioxopyrrolidin-3-yl)-1-(4-fluorophenyl)-1H-indazole-6-carboxamide], the IC50 was 669 nM. This IC50 and that of the compound before are within 1.5-fold of each other.

On to `O=C(N[C@@H]1CCC[C@@H]1O)c1ccc2c(-c3ccccc3Cl)nn(-c3ccc(F)cc3)c2c1` [Example 115, 3-(2-chlorophenyl)-1-(4-fluorophenyl)-N-[(1R,2S)-2-hydroxycyclopentyl]-1H-indazole-6-carboxamide], for which the half-inhibitory concentration (IC50) was determined as 578 nM.

Take `CSCC[C@@H](CO)NC(=O)c1ccc2c(-c3ccccc3Cl)nn(-c3ccc(F)cc3)c2c1` [Example 93, 3-(2-chlorophenyl)-1-(4-fluorophenyl)-N-[(1S)-1-(hydroxymethyl)-3-(methylsulfanyl)propyl]-1H-indazole-6-carboxamide]: the IC50 came out at 503 nM.

Regarding `O=C(NC1CCC(O)C1)c1ccc2c(-c3ccccc3Cl)nn(-c3ccc(F)cc3)c2c1` (racemic) [Example 83, 3-(2-chlorophenyl)-1-(4-fluorophenyl)-N-(3-hydroxycyclopentyl)-1H-indazole-6-carboxamide], the IC50 was 276 nM.

For `CC1(NC(=O)c2ccc3c(-c4cccc(C#N)c4)nn(-c4ccc(F)cn4)c3c2)CCS(=O)(=O)C1` (single isomer, unassigned) [Example 178-B, 3-(3-cyanophenyl)-1-(5-fluoropyridin-2-yl)-N-(3-methyl-1,1-dioxidotetrahydrothiophen-3-yl)-1H-indazole-6-carboxamide], the IC50 came to 32 nM.

`CC(C)(C)OC(=O)CCNC(=O)c1ccc2c(-c3ccccc3Cl)nn(-c3ccc(F)cc3)c2c1` [Example 19, tert-butyl N-{[3-(2-chlorophenyl)-1-(4-fluorophenyl)-1H-indazol-6-yl]carbonyl}-beta-alaninate] showed an IC50 of 585 nM.

The compound `O=C(NC1CCS(=O)(=O)C1)c1ccc2c(-c3ccccc3Cl)nn(Cc3ccccc3)c2c1` (racemic) [Example 167, (±)-1-Benzyl-3-(2-chlorophenyl-N-(1,1-dioxidotetrahydrothiophen-3-yl)-1-indazole-6-carboxamide] returned an IC50 of 383 nM.

Turning to `O=C(N[C@@H]1CS(=O)(=O)C[C@H]1O)c1ccc2c(-c3ccccc3Cl)nn(-c3ccc(F)cc3)c2c1` [Example 9, 3-(2-chlorophenyl)-1-(4-fluorophenyl)-N-[(3S,4S)-4-hydroxy-1,1-dioxidotetrahydrothiophen-3-yl]-1H-indazole-6-carboxamide], half-maximal inhibition (IC50) was put at 531 nM.

Turning to `O=C(NCc1cnc(C(F)(F)F)nc1)c1ccc2c(-c3ccccc3Cl)nn(-c3ccc(F)cc3)c2c1` [Example 49, 3-(2-chlorophenyl)-1-(4-fluorophenyl)-N-{[2-(trifluoromethyl)pyrimidin-5-yl]methyl}-1H-indazole-6-carboxamide], the IC50 amounted to 79 nM. Compared with the last compound, the IC50 is about 6.7-fold lower.

`CC1(NC(=O)c2ccc3c(-c4cccc(OCC(F)(F)F)c4)nn(-c4ccc(F)cc4)c3c2)CCS(=O)(=O)C1` (single isomer, unassigned) [Example 147-A, 1-(4-fluorophenyl)-N-(3-methyl-1,1-dioxidotetrahydrothiophen-3-yl)-3-[3-(2,2,2-trifluoroethoxy)phenyl]-1H-indazole-6-carboxamide] came in with an IC50 of 5.7 nM.

Compound `COc1cccc(-c2nn(-c3ccc(F)cc3)c3cc(C(=O)NC4(C)CCS(=O)(=O)C4)ccc23)c1` (single isomer, unassigned) [Example 144-A, 1-(4-fluorophenyl)-3-(3-methoxyphenyl)-N-(3-methyl-1,1-dioxidotetrahydrothiophen-3-yl)-1H-indazole-6-carboxamide] yielded an IC50 of 5.8 nM.

The compound `CC1(NC(=O)c2ccc3c(-c4cccc(C5CC5)c4)nn(-c4ccc(F)cc4)c3c2)CCS(=O)(=O)C1` (single isomer, unassigned) [Example 145-A, 3-(3-cyclopropylphenyl)-1-(4-fluorophenyl)-N-(3-methyl-1,1-dioxidotetrahydrothiophen-3-yl)-1H-indazole-6-carboxamide] returned an IC50 of 2.1 nM.

On to `N[C@H]1CS(=O)(=O)C[C@@H]1NC(=O)c1ccc2c(-c3ccccc3Cl)nn(-c3ccc(F)cc3)c2c1` [Example 8, N-[(3R,4R)-4-amino-1,1-dioxidotetrahydrothiophen-3-yl]-3-(2-chlorophenyl)-1-(4-fluorophenyl)-1H-indazole-6-carboxamide], for which the IC50 is 554 nM.

With `O=C(NC1(CO)CC1)c1ccc2c(-c3ccccc3Cl)nn(-c3ccc(F)cc3)c2c1` [Example 61, 3-(2-chlorophenyl)-1-(4-fluorophenyl)-N-[1-(hydroxymethyl)cyclopropyl]-1H-indazole-6-carboxamide], the midpoint of inhibition, the IC50, lay at 73 nM.

As for `O=C(N[C@H](CO)c1ccccc1)c1ccc2c(-c3ccccc3Cl)nn(-c3ccc(F)cc3)c2c1` [Example 82, 3-(2-chlorophenyl)-1-(4-fluorophenyl)-N-[(1S)-2-hydroxy-1-phenylethyl]-1H-indazole-6-carboxamide], the IC50 was 36 nM.

For the compound `N#Cc1cccc(-c2nn(-c3ccc(F)cn3)c3cc(C(=O)N[C@H]4CCS(=O)(=O)C4)ccc23)c1` [177-B], the IC50 stood at 86 nM.

As for `CC1(NC(=O)c2ccc3c(-c4cc(Cl)cc(Cl)c4)nn(-c4ccc(F)cc4)c3c2)CCS(=O)(=O)C1` (single isomer, unassigned) [Example 157-A, 3-(3,5-dichlorophenyl)-1-(4-fluorophenyl)-N-(3-methyl-1,1-dioxidotetrahydrothiophen-3-yl)-1H-indazole-6-carboxamide], half-maximal inhibition (IC50) required 61 nM.

For the compound `CC(O)CC(C)(C)NC(=O)c1ccc2c(-c3ccccc3Cl)nn(-c3ccc(F)cc3)c2c1` (racemic) [Example 113, 3-(2-chlorophenyl)-1-(4-fluorophenyl)-N-(3-hydroxy-1,1-dimethylbutyl)-1H-indazole-6-carboxamide], the IC50 stood at 41 nM.

`CC(C)(NC(=O)c1ccc2c(-c3ccccc3Cl)nn(-c3ccc(F)cc3)c2c1)c1ccc(C(F)(F)F)nc1` [Example 28, 3-(2-chlorophenyl)-1-(4-fluorophenyl)-N-{1-methyl-1-[6-(trifluoromethyl)pyridin-3-yl]ethyl}-1H-indazole-6-carboxamide] had an IC50 of 93 nM.

As to `C[C@@H](NC(=O)c1ccc2c(-c3ccccc3Cl)nn(-c3ccc(F)cc3)c2c1)c1ccc(C(F)(F)F)nc1` [Example 11, 3-(2-chlorophenyl)-1-(4-fluorophenyl)-N-{(1R)-1-[6-(trifluoromethyl)pyridin-3-yl]ethyl}-1H-indazole-6-carboxamide], it took 38 nM to reach half-maximal inhibition (IC50).

On to `O=C(NCCS(=O)(=O)Nc1ccccc1)c1ccc2c(-c3ccccc3Cl)nn(-c3ccc(F)cc3)c2c1` [Example 56, 3-(2-chlorophenyl)-1-(4-fluorophenyl)-N-[2-(phenylsulfamoyl)ethyl]-1H-indazole-6-carboxamide], for which the IC50 was 22 nM. Against the preceding compound, the IC50 is about 1.7-fold lower.

In turn, `O=C(NCCS(=O)(=O)NC1CCCCC1)c1ccc2c(-c3ccccc3Cl)nn(-c3ccc(F)cc3)c2c1` [Example 53, 3-(2-chlorophenyl)-N-[2-(cyclohexylsulfamoyl)ethyl]-1-(4-fluorophenyl)-1H-indazole-6-carboxamide] showed an IC50 of 32 nM. This IC50 and that of the compound before are within 1.5-fold of each other.

Compound `O=C(NC1CCS(=O)(=O)C1)c1ccc2c(-c3ccccc3Cl)nn(-c3ccc(F)cc3)c2c1` (single isomer, unassigned) [Example 2-B, 3-(2-chlorophenyl)-N-(1,1-dioxidotetrahydrothiophen-3-yl)-1-(4-fluorophenyl)-1H-indazole-6-carboxamide] registered an IC50 of 303 nM. Against the preceding compound, the IC50 is about 9.5-fold higher.
